From patent US10131652B2, “Pyrimidinyloxy benzene derivatives as herbicides” (E. I. DU PONT DE NEMOURS AND COMPANY, priority 2014, dated 2018)
Where two headings read alike, the source gives them in different places.

Key:
Type in all cases: in vivo
[1] = test system: lambsquarters (Chenopodium album); experiment: Test F pre-/postemergence plant response; details: Chenopodium album, pre-emergence, scale 0 to 100, read-out: Plant response rating, Lambsquarters
Method in brief: (§1)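 Two application timings were run side by side: soil surface treatment of freshly planted seed in silt loam, and foliar treatment of seedlings 2 to 18 cm high. Plants stayed in the greenhouse 14 to 21 days before visual 0–100 injury scoring against controls.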

[2] = test system: large (Lg) crabgrass (Digitaria sanguinalis); experiment: Test F pre-/postemergence plant response; details: Digitaria sanguinalis, pre-emergence, scale 0 to 100, read-out: Plant response rating, Crabgrass, Large
Method in brief: as §1

[3] = test system: soybean (Glycine max); experiment: Test F pre-/postemergence plant response; details: Glycine max, scale 0 to 100, read-out: Plant response rating, Soybean
Method in brief: as §1

[4] = test system: Italian ryegrass (Lolium multiflorum); experiment: Test F pre-/postemergence plant response; details: Lolium multiflorum, scale 0 to 100, read-out: Plant response rating, Ryegrass, Italian; for pest or weed control at 16 g/ha: 16 g ai/ha; for pest or weed control at 31 g/ha: 31 g ai/ha; for pest or weed control at 125 g/ha: 125 g ai/ha
Method in brief: as §1

[5] = test system: morningglory (Ipomoea coccinea); experiment: Test F pre-/postemergence plant response; details: Ipomoea, pre-emergence, scale 0 to 100, read-out: Plant response rating, Morningglory
Method in brief: as §1

[6] = test system: barnyardgrass (Echinochloa crus-galli); experiment: Test F pre-/postemergence plant response; details: Echinochloa crus-galli, scale 0 to 100, read-out: Plant response rating, Barnyardgrass
Method in brief: as §1

[7] = test system: sandbur (southern sandbur, Cenchrus echinatus); experiment: Test F pre-/postemergence plant response; details: Cenchrus echinatus, scale 0 to 100, read-out: Plant response rating, Sandbur
Method in brief: as §1

[8] = test system: surinam grass (Brachiaria decumbens); experiment: Test F pre-/postemergence plant response; details: Urochloa decumbens, pre-emergence, scale 0 to 100, read-out: Plant response rating, Surinam Grass
Method in brief: as §1

[9] = test system: Brazilian crabgrass (Digitaria horizontalis); experiment: Test F pre-/postemergence plant response; details: Digitaria horizontalis, scale 0 to 100, read-out: Plant response rating, Crabgrass, Brazil
Method in brief: as §1

[10] = test system: giant foxtail (Setaria faberii); experiment: Test F pre-/postemergence plant response; details: Setaria faberi, pre-emergence, scale 0 to 100, read-out: Plant response rating, Foxtail, Giant
Method in brief: as §1

[11] = test system: dayflower (Virginia (VA) dayflower, Commelina virginica); experiment: Test F pre-/postemergence plant response; details: Commelina virginica, scale 0 to 100, read-out: Plant response rating, Dayflower, VA
Method in brief: as §1

[12] = test system: waterhemp_RES1 (ALS & Triazine resistant common waterhemp, Amaranthus rudis); experiment: Test F postemergence plant response; details: scale 0 to 100
Procedure: (§2) At the same time, plants from these crop and weed species and also waterhemp_RES1, (ALS & Triazine resistant common waterhemp, Amaranthus rudis), and waterhemp_RES2, (ALS & HPPD resistant common waterhemp, Amaranthus rudis) were treated with postemergence applications of test chemicals formulated in the same manner. Plants ranged in height from 2 to 18 cm for postemergence treatments (1- to 4-leaf stage).
(§3) Treated plants and controls were maintained in a greenhouse for 14 to 21 days, after which time all species were compared to controls and visually evaluated. Plant response ratings, summarized in Table F, are based on a scale of 0 to 100 where 0 is no effect and 100 is complete control. A dash (-) response means no test result.

[13] = test system: waterhemp_RES2 (ALS & HPPD resistant common waterhemp, Amaranthus rudis); experiment: Test F postemergence plant response; details: scale 0 to 100
Procedure: as §2, §3

[14] = post-emergence, 8 g ai/ha Postemergence
[15] = post-emergence, 16 g ai/ha Postemergence
[16] = post-emergence, 31 g ai/ha Postemergence
[17] = post-emergence, 62 g ai/ha Postemergence
[18] = post-emergence, 125 g ai/ha Postemergence
[19] = pre-emergence, 8 g ai/ha Preemergence
[20] = pre-emergence, 16 g ai/ha Preemergence
[21] = pre-emergence, 31 g ai/ha Preemergence
[22] = pre-emergence, 125 g ai/ha Preemergence
[23] = pre-emergence, 62 g ai/ha Preemergence

FC(F)c1cc(-c2ccccc2Oc2ncc(Cl)cn2)no1 [Compound 35, 5-chloro-2-[2-[5-(difluoromethyl)-3-isoxazolyl]phenoxy]pyrimidine]
95%: plant injury at 62 g/ha [3, 17] | pest or weed control at 16 g/ha [9, 20] | pest or weed control at 125 g/ha [11, 22]
90: Plant response rating, Waterhemp_RES1 ([12]; 8 g ai/ha Postemergence) | Plant response rating, Waterhemp_RES1 ([12]; 31 g ai/ha Postemergence) | Plant response rating, Waterhemp_RES2 ([13]; 8 g ai/ha Postemergence) | Plant response rating, Waterhemp_RES2 ([13]; 16 g ai/ha Postemergence)
95: Plant response rating, Waterhemp_RES2 ([13]; 31 g ai/ha Postemergence)
80%: plant injury at 16 g/ha [3, 15] | pest or weed control at 125 g/ha [11, 18]
65%: pest or weed control at 62 g/ha ([4]; pre-emergence, Preemergence) | pest or weed control at 125 g/ha ([5]; 125 g ai/ha Preemergence) | pest or weed control at 125 g/ha [6, 22] | pest or weed control at 125 g/ha [7, 22] | pest or weed control at 31 g/ha [11, 21]
15%: pest or weed control at 31 g/ha ([4]; pre-emergence, Preemergence)
75%: pest or weed control at 31 g/ha ([2]; 31 g ai/ha Preemergence) | pest or weed control at 62 g/ha ([2]; 62 g ai/ha Preemergence)
100%: pest or weed control at 31 g/ha ([1]; 31 g ai/ha, Preemergence) | pest or weed control at 125 g/ha ([1]; 125 g ai/ha, Preemergence) | pest or weed control at 62 g/ha ([1]; Preemergence) | pest or weed control at 125 g/ha ([2]; 125 g ai/ha Preemergence) | pest or weed control at 62 g/ha [9, 23] | pest or weed control at 125 g/ha [9, 22] | pest or weed control at 125 g/ha ([10]; 125 g ai/ha Preemergence)
50%: pest or weed control at 62 g/ha [11, 17]
40%: plant injury at 31 g/ha [3, 21] | pest or weed control at 62 g/ha ([7]; pre-emergence, Preemergence) | pest or weed control at 125 g/ha [9, 18] | pest or weed control at 16 g/ha [11, 15] | pest or weed control at 31 g/ha [11, 16]
90%: pest or weed control at 8 g/ha ([1]; 8 g ai/ha Preemergence) | plant injury at 125 g/ha [3, 22] | pest or weed control at 62 g/ha [11, 23]
70%: plant injury at 8 g/ha [3, 14] | plant injury at 62 g/ha ([3]; pre-emergence, Preemergence) | pest or weed control at 125 g/ha ([4]; pre-emergence, Preemergence) | pest or weed control at 31 g/ha ([10]; 31 g ai/ha Preemergence) | pest or weed control at 62 g/ha ([10]; 62 g ai/ha Preemergence)
80: Plant response rating, Waterhemp_RES1 ([12]; 16 g ai/ha Postemergence)
60%: pest or weed control at 16 g/ha ([2]; 16 g ai/ha Preemergence)
35%: plant injury at 16 g/ha [3, 20] | pest or weed control at 125 g/ha ([8]; 125 g ai/ha Preemergence) | pest or weed control at 62 g/ha [9, 17]
25%: pest or weed control at 16 g/ha [11, 20]
30%: pest or weed control at 62 g/ha ([5]; Preemergence) | pest or weed control at 31 g/ha [9, 16]
10%: pest or weed control at 62 g/ha [6, 17] | pest or weed control at 62 g/ha [6, 23] | pest or weed control at 16 g/ha [7, 20] | pest or weed control at 31 g/ha [7, 21] | pest or weed control at 8 g/ha [9, 14] | pest or weed control at 16 g/ha ([10]; 16 g ai/ha Preemergence) | pest or weed control at 8 g/ha [11, 14]
100: Plant response rating, Waterhemp_RES1 ([12]; 62 g ai/ha Postemergence) | Plant response rating, Waterhemp_RES1 ([12]; 125 g ai/ha Postemergence) | Plant response rating, Waterhemp_RES2 ([13]; 62 g ai/ha Postemergence) | Plant response rating, Waterhemp_RES2 ([13]; 125 g ai/ha Postemergence)
98%: pest or weed control at 16 g/ha ([1]; 16 g ai/ha, Preemergence) | plant injury at 125 g/ha [3, 18] | pest or weed control at 31 g/ha [9, 21]
85%: plant injury at 31 g/ha [3, 16]
0%: pest or weed control at 8 g/ha ([2]; 8 g ai/ha Preemergence) | plant injury at 8 g/ha [3, 19] | pest or weed control at 8 g/ha [4, 14] | pest or weed control at 16 g/ha ([4]; post-emergence, Postemergence) | pest or weed control at 31 g/ha ([4]; post-emergence, Postemergence) | pest or weed control at 62 g/ha ([4]; post-emergence, 62 g ai/ha, Postemergence) | pest or weed control at 125 g/ha ([4]; post-emergence, Postemergence) | pest or weed control at 8 g/ha [4, 19] | pest or weed control at 16 g/ha ([4]; pre-emergence, Preemergence) | pest or weed control at 8 g/ha ([5]; 8 g ai/ha Preemergence) | pest or weed control at 16 g/ha ([5]; 16 g ai/ha Preemergence) | pest or weed control at 31 g/ha ([5]; 31 g ai/ha Preemergence) | pest or weed control at 8 g/ha [6, 14] | pest or weed control at 16 g/ha [6, 15] | pest or weed control at 31 g/ha [6, 16] | pest or weed control at 8 g/ha [6, 19] | pest or weed control at 16 g/ha [6, 20] | pest or weed control at 8 g/ha [7, 14] | pest or weed control at 16 g/ha [7, 15] | pest or weed control at 31 g/ha [7, 16] | pest or weed control at 62 g/ha [7, 17] | pest or weed control at 125 g/ha [7, 18] | pest or weed control at 8 g/ha [7, 19] | pest or weed control at 8 g/ha ([8]; 8 g ai/ha Preemergence) | pest or weed control at 16 g/ha ([8]; 16 g ai/ha Preemergence) | pest or weed control at 31 g/ha ([8]; 31 g ai/ha Preemergence) | pest or weed control at 8 g/ha [9, 19] | pest or weed control at 8 g/ha ([10]; 8 g ai/ha Preemergence) | pest or weed control at 8 g/ha [11, 19]
20%: pest or weed control at 125 g/ha [6, 18] | pest or weed control at 31 g/ha [6, 21] | pest or weed control at 62 g/ha ([8]; Preemergence) | pest or weed control at 16 g/ha [9, 15]
